Earlier results as cited in PMC8177775 (Cancer Science, 2021).

Experiments:
[1] = system: patients with acute myeloid leukemia; settings: n = 36; cited from earlier work
[2] = system: patients with solid tumors; settings: cited from earlier work
[3] = system: patients with wild‐type p53 and RAS or RAF mutations and locally advanced or metastatic solid tumors; settings: 26 patients; cited from earlier work

CC(C)[C@@H](CS(=O)(=O)C(C)C)N1C(=O)[C@@](C)(CC(=O)O)C[C@H](c2cccc(Cl)c2)[C@H]1c1ccc(Cl)cc1 [AMG 232]
Common treatment-related AEs [1]: nausea, diarrhea, and vomiting | MTD [1]: not reached

CCOc1cc(C(C)(C)C)ccc1C1=N[C@@](C)(c2ccc(Cl)cc2)[C@@](C)(c2ccc(Cl)cc2)N1C(=O)N1CCN(CCCS(C)(=O)=O)CC1 [RG7112]
Grade ≥ 3 lymphocyte count decreased ([2]; n = 76): 11 patients | Grade ≥ 3 platelet count decreased ([2]; n = 76): two patients | Tolerability ([2]; patients (n = 76) with solid tumors): generally well tolerated

CC(C)(C)C[C@@H]1N[C@@H](C(=O)N[C@H]2CC[C@H](O)CC2)[C@H](c2cccc(Cl)c2F)[C@]12C(=O)Nc1cc(Cl)ccc12 [SAR405838]
Most common reported AEs [3]: diarrhea, blood creatine phosphokinase increased, nausea, and vomiting
